Experiment [1] addresses T1, VCAM-1 binding to α4β7-negative Th memory cells (Homo sapiens, UniProt P05556+P13612).
T1 construct: endogenous in cells
Kind of experiment: VCAM-1 competition / receptor occupancy assay in human whole blood, α4β7-negative Th memory cells. It counts as cell-based. Here is the method: Analyte Competition Assay in CD4+ Integrin α4+β7-Lo Memory T Cells
Receptor occupancy in primary cells was determined by measuring the amount of biotinylated human recombinant MAdCAM-1-FC or human recombinant VCAM-1-Fc bound to selected cell populations using flow cytometry. Human recombinant MAdCAM-1-FC or human recombinant VCAM-1-FC (R&D systems) were biotinylated using commercially available reagents and protocol (Pierce).
Whole blood was collected from human donors in sodium heparin tubes. A volume of 100 microL of blood was incubated with compound and 4 mM MnCL2 for 1 hour at room temperature. Cells were washed twice with 1 mL of 1X DPBS calcium magnesium free (CMF) (ThermoFisher Scientific) and resuspended in 100 microL of DPBS CMF.
Biotinylated human recombinant MAdCAM-1-Fc or VCAM-1-Fc were added at saturating concentration and incubated at room temperature for 1 hour. A volume of 2 mL of 1X BD FACS Lyse (BD Biosciences) was then added and the mixture was incubated for 8-12 minutes at room temperature in the dark to lyse red blood cells. Cells were washed with 1 mL stain buffer-FBS (BD Biosciences) and resuspended in 100 μl stain Buffer-FBS (BD Biosciences) containing 4 mM MnCl2. Biotinylated-rhMAdCAM-1 was applied at a saturating concentration of 1200 ng/mL to compete with test article binding and incubated at room temperature for 1 hour. Cells were then washed with 1 mL stain buffer-FBS and resuspended in […] stain buffer-FBS. The cells were incubated in the dark for 30 minutes at room temperature with 1 ul Streptavidin APC (Biolegend 0.2 mg/ml) and a panel of antibodies for the detection of memory T helper a4b7-positive cells subset. And amount of 5.0 ul each of the following antibodies were used; CD45 FITC (BioLegend 200 ug/ml), CD29 APC Cy7 (BioLegend 100 ug/ml), Integrin beta7 PE, (BioLegend concentration 50 μg/mL), CD49d V421 (BioLegend 50 μg/mL), CD3 V510 (BioLegend 30 μg/mL), CD4 PECy7 (BioLegend 100 μg/mL), CD45RO PerCP, BioLegend 200 μg/mL). The cells were then washed with stain-buffer-FBS and resuspended in 150 microL stain buffer-FBS for acquisition on the flow cytometer (BD FACSCanto™ flow cytometer and BDFACSDiva™ software). FACS data was acquire by electronic gating on the basis of forward versus side scatter, The cytometer was set to collect 20,000 events in each tube. Cell population were determined using the following markers, CD45+, CD3+, CD4+, CD45RO+, CD49d+, integrin b7, biotinylated ligands.
Compound receptor occupancy was defined as the decrease in the number of integrin β7+ or integrin β7-lo cells binding biotinylated rhMAdCAM-1 or rhVCAM-1, respectively.
(§1) Receptor occupancy was calculated with the following equation: 100−((% ligand-positive cells with compound/% ligand-positive cells DMSO)*100) In Vivo T Lymphocyte Trafficking Analysis in Mouse Model of Colitis

Experiment [2] relates to α4β7+ T helper memory lymphocytes in mesenteric lymph nodes. Nature of the experiment: In vivo T lymphocyte trafficking analysis in DSS mouse model of colitis. To be noted: DSS-treated mice. Here is the method:
as §1
Animal care: The animal care facility employed is accredited by the Canadian Council on Animal Care (CCAC). This study was approved by a certified Animal Care Committee and complied with CACC standards and regulations governing the use of animals for research. The animals were housed under standardized environmental conditions. A standard certified commercial rodent diet was provided ad libitum. Tap water was provided ad libitum at all times.
Dextran sulfate sodium (DSS) was administered to C57Bl/6 female mice for five days through addition to their drinking water at 3%. Body weight and disease activity index (“DAI”) were measured on Day 5 in order to distribute DSS-treated animals in uniform groups prior to dosing. DAI was scored based on the severity three specific symptoms associated with colitis: 1—blood in stool (negative hemoccult, positive hemoccult, blood traces in stool visible, rectal bleeding); 2—stool consistency (normal, soft but still formed, very soft, diarrhea); 3—body weight loss. […]
Statistical analysis was performed using GraphPad Prism. Differences among groups were evaluated by two-way ANOVA, with a 95% confidence interval.

The mark [3] stands for this setting: human whole blood, inhibition of VCAM binding to α4β7-negative Th memory cells, FACS, read-out: VCAM FACS α4+β7− Th mem.

Where two headings read alike, the source gives them in different places. Bounds are passed on as bounds.

T1 sequence (P13612 34-1032): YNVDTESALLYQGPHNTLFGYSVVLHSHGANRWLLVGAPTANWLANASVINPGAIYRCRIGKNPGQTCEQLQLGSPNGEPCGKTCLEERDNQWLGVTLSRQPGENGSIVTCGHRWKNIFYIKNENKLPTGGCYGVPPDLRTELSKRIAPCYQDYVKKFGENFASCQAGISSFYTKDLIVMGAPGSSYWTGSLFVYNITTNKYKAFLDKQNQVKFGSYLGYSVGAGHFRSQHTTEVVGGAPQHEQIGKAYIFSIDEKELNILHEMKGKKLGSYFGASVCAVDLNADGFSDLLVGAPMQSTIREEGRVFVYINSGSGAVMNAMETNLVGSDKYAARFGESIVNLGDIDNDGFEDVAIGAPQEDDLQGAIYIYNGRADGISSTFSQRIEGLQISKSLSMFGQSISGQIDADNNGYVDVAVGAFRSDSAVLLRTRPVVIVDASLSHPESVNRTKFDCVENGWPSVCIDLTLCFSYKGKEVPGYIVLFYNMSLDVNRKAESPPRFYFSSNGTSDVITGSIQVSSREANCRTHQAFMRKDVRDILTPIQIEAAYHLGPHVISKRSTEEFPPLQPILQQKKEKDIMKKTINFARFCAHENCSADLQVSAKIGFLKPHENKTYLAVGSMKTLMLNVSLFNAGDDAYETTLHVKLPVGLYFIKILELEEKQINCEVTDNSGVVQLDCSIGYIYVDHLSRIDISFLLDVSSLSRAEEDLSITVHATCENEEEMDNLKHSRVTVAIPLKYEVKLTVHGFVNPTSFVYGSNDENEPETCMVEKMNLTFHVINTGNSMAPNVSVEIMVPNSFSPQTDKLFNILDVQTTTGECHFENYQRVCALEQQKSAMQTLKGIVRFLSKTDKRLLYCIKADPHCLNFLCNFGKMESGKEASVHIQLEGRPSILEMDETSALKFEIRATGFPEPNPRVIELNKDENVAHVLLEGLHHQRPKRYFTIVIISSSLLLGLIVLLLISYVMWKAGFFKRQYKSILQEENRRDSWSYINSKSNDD
T1 sequence (P05556 21-798): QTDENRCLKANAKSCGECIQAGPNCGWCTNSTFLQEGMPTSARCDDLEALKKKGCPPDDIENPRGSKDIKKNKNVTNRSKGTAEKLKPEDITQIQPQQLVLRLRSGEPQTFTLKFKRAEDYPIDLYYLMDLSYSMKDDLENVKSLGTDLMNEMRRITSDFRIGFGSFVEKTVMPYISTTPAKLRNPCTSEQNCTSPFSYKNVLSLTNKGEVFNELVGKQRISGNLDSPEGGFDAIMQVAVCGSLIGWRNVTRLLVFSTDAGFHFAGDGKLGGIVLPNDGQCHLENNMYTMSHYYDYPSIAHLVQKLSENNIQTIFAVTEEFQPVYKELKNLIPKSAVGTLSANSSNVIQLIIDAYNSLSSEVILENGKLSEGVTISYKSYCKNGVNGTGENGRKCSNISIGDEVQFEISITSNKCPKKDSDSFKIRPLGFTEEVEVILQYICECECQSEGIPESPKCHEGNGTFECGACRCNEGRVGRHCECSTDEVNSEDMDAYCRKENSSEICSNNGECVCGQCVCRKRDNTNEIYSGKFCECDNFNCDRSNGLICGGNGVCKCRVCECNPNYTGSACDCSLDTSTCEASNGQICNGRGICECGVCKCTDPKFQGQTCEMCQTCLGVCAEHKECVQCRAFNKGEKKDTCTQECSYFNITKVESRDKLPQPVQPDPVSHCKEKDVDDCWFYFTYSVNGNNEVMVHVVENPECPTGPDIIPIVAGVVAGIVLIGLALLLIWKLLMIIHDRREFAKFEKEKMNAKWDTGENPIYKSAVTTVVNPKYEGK

As to `CC(C)C[C@@H]1NC(=O)c2ccc(-c3ccc(N4CCN(CCC(=O)N5CCN(c6ccc(-c7ccc8cc7CNC(=O)[C@@H]7CCCN7[C@H](C(=O)NC(C)(C)C)[C@H](C)NC(=O)[C@H]([C@@H](C)O)NC(=O)[C@H](CC(=O)O)NC(=O)[C@H](CC(C)C)NC8=O)cc6)CC5)CC4)cc3)c(c2)CNC(=O)[C@@H]2CCCN2[C@H](C(=O)NC(C)(C)C)[C@H](C)NC(=O)[C@H]([C@@H](C)O)NC(=O)[C@H](CC(=O)O)NC1=O` [Compound 482], the IC50 in experiment [1] (setting [3]) was ≥ 4 µM.

Turning to `CC(C)C[C@@H]1NC(=O)c2ccc(-c3ccc(N4CCN(C(=O)CCOCCOCCOCCOCCOCCOCCOCCOCCOCCOCCC(=O)N5CCN(c6ccc(-c7ccc8cc7CNC(=O)[C@@H]7CCCN7[C@H](C(=O)NC(C)(C)C)[C@H](C)NC(=O)[C@H]([C@@H](C)O)NC(=O)[C@H](CC(=O)O)NC(=O)[C@H](CC(C)C)NC8=O)cc6)CC5)CC4)cc3)c(c2)CNC(=O)[C@@H]2CCCN2[C@H](C(=O)NC(C)(C)C)[C@H](C)NC(=O)[C@H]([C@@H](C)O)NC(=O)[C@H](CC(=O)O)NC1=O` [Compound 511], in experiment [1] (setting [3]), the IC50 was determined as 20 µM. As to `CC(C)C[C@@H]1NC(=O)c2ccc(-c3ccc(N4CCN(C(=O)c5ccccc5-c5ccccc5C(=O)N5CCN(c6ccc(-c7ccc8cc7CNC(=O)[C@@H]7CCCN7[C@H](C(=O)NC(C)(C)C)[C@H](C)NC(=O)[C@H]([C@@H](C)O)NC(=O)[C@H](CC(=O)O)NC(=O)[C@H](CC(C)C)NC8=O)cc6)CC5)CC4)cc3)c(c2)CNC(=O)[C@@H]2CCCN2[C@H](C(=O)NC(C)(C)C)[C@H](C)NC(=O)[C@H]([C@@H](C)O)NC(=O)[C@H](CC(=O)O)NC1=O` [Compound 517], in experiment [1] (setting [3]), the IC50 amounted to 0.607 µM. For the same molecule, the “reduction of the number of α4β7+ positive lymphocytes in mesenteric lymph nodes” value in experiment [2] (80 mg/kg orally daily days 6 to 9) stood at 60%. Besides, in experiment [2] (FIG. 9), the “reduction in α4β7+ T helper memory lymphocytes in mesenteric lymph nodes, dose dependence” value is reported as “dose-dependent reduction”. For `CC(C)C[C@@H]1NC(=O)C[C@H](CCCCN)N(C)C(=O)[C@H](CCCCNC(=O)CCCCCCCCC(=O)NCCCC[C@@H]2NC(=O)[C@@H]3CCCN3[C@H](C(=O)NC(C)(C)C)[C@H](C)NC(=O)[C@H]([C@@H](C)O)NC(=O)[C@H](CC(=O)O)NC(=O)[C@H](CC(C)C)NC(=O)C[C@H](CCCCN)N(C)C2=O)NC(=O)[C@@H]2CCCN2[C@H](C(=O)NC(C)(C)C)[C@H](C)NC(=O)[C@H]([C@@H](C)O)NC(=O)[C@H](CC(=O)O)NC1=O` [Compound 530], the IC50 was > 4 µM in experiment [1] (setting [3]) and ≥ 0.6 µM in experiment [1] (whole blood from a single donor, FIG. 11, up to 4000 nM, read-out: IC50, VCAM binding).

These data come from US11713338B2, “Cyclic peptides multimers targeting α-4-β-7 integrin” (priority 2016, dated 2023).
